The values below come from paper PMC5920042, “KH176 Safeguards Mitochondrial Diseased Cells from Redox Stress-Induced Cell Death by Interacting with the Thioredoxin System/Peroxiredoxin Enzyme Machinery” (Scientific Reports, 2018).

Series [1] concerns OXPHOS deficient cell lines. Kind of series: Redox Stress Survival assay, extended panel of OXPHOS deficient cell lines. It counts as cell-based. The following applies: Homo sapiens, BSO insult, read-out: EC50 values, range over the panel of cell lines. The procedure:
Cells were seeded at a density of 4 × 10^3 cells/well into 96-wells black plates and incubated for 24 h. To induce redox stress, semi-logarithmic dilutions of buthionine sulphoximine (BSO, #B2515, Sigma Aldrich) up to 100 µM were added to the cells in culture medium and incubated for 24 h. Cell viability was assessed by quantification of cellular conversion of Calcein AM into fluorescent Calcein. Briefly, after having discarded the BSO containing medium, cells were washed once with M199 without phenol red and loaded with 2 µM Calcein AM (#65-0853-39, Affimetrix eBioscience) in M199 without phenol red for 25 min. At the end of the incubation period, the excess of the dye was washed with M199 without phenol red and Calcein fluorescence was measured with a scanning microplate reader (BMG FLUOstar Omega; Ex. 480 nm, Em. 520 nm). For compound screening and target identification measurements cells were treated with 200 µM BSO alone or in co-incubation with semi-logarithmic dilutions of the test compound. Additionally, where indicated, increasing doses of Auranofin (AFN, #BML-EI206-0100, Enzo) or Aurothioglucose (ATG, #A0606, Sigma Aldrich) were co-incubated with BSO and the test compound. In all cases, cell viability was assessed 24 h after the treatment.

For series [2] the following is noted: cited from earlier work.
A further series deals with T1, TrxR1, Trx1 and Prdx2 (Homo sapiens, UniProt P32119).
T1 construct: purchased Novus Biological NBP1-44456 (TrxR1), NBC1-18541 (Trx1), NBC1-25855 (Prdx2)
T1 sequence (P32119 1-198): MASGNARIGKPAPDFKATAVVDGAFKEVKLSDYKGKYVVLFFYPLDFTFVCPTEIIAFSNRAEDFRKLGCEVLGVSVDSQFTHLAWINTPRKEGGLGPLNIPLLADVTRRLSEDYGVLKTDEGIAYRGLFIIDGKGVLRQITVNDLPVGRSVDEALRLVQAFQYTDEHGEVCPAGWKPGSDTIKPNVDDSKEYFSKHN
Kind of series: TrxR1-Trx1-Prdx2 system biochemical assay (NADPH consumption). The settings on record: 100 µM compound, H2O2 50 µM, NADPH 75 µM. The procedure: NADPH consumption measurements were performed according to the method described by Nelson et al.[50] in the presence of TrxR1, Trx1 and Prdx2 (Novus Biological NBP1-44456, NBC1-18541 and NBC1-25855, respectively). The incubations contained TrxR1 0.5 µM, Trx1 5 µM, Prdx2 0.5 µM, H2O2 50 µM, NADPH 75 µM in 25 mM potassium phosphate pH 7, 100 mM ammonium sulphate. The experiments were carried out in 96-wells black plates and in triplicate. Briefly, TrxR1, Trx1, and H2O2 were pre-incubated for 5 min at 25 °C for thermal equilibration. Upon addition of NADPH the initial NADPH auto-fluorescence was recorded for 2 min on a scanning microplate reader (PerkinElmer Enspire; Ex. 340 nm, Em. 482 nm) to insure that less than 10% of NADPH is oxidized in the absence of Prdx2. Ultimately Prdx2 was added to start the enzymatic reaction, which was monitored during 60 minutes. To test the effect of the compounds on NADPH consumption, KH176m and KH176 were added at 100 µM final concentration, after the addition of Prdx2. The NADPH fluorescence was followed in time. […] A parallel reaction without TrxR was performed to quantified non-specific NADPH oxidation and used for background correction.

Series [3] in a line: Intracellular conversion of KH176 into KH176m (LC-MS/MS). The following applies: 24 hours incubation with 3 µM KH176.
Description: Cells were seeded at a density of 125 × 10^3 cells/well into 6-wells transparent plates (#657160, Greiner Bio-one) and incubated for 24 h. The culture medium was then replaced with fresh medium containing 3 µM KH176 and the cells were incubated for an additional 24 h. At the end of the treatment time, cells were washed twice with ice-cold PBS (#200120169, Thermo Fischer Scientific) before deprotenization with perchloric acid. The samples were then analyzed with standard LC-MS/MS system (Accela HPLC system, Thermo Fischer Scientific) equipped with a Zorbax Eclipse Plus C18 analytical column (Rapid Resolution HD 1.8 μm; 50 × 2.1 mm, Agilent, USA) and coupled with a UHPLC Guard Zorbax Eclipse Plus C18 pre-column (1.8 µm; 5 × 2.1 mm, Agilent). After separation the eluate was directly passed into a TSQ Vantage tandem mass spectrometer (Thermo Fischer Scientific) equipped with an electro-spray ionization source. Detection of the compounds was based on isolation of the protonated molecular ion, [M + H]+, and subsequent MS/MS fragmentations and selected reaction monitoring were performed. Proprietary compounds of Khondrion were used as internal standards.
The target of a further series is T2, CCDC101 (Homo sapiens, UniProt Q96ES7).
T2 construct: purchased Abcam Ab124547
T2 sequence (Q96ES7 1-293): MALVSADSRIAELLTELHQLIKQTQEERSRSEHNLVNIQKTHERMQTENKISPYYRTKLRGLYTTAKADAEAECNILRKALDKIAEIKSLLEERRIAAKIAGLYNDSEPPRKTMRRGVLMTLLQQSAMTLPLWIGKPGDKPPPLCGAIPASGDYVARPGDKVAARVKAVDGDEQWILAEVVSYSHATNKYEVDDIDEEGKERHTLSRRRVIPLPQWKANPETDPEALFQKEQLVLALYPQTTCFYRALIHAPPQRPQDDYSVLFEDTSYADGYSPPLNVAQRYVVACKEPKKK
Kind of series: Surface Plasmon Resonance binding. The following applies: SPR. The procedure:
Prior to protein immobilization all proteins were dialyzed against HBS-E (10 mM Hepes, 150 mM NaCl, 3 mM EDTA) buffer that was previously filtered through a 0.45 µM membrane using dialyze slide according to the manufacturer instruction. Human recombinant proteins peroxiredoxin 2 (Novus Biological NBC1-25855) and CCDC101 (Abcam Ab124547) were immobilized on CM5 (carboxymethylated dextran covalently attached to a gold surface) using the amine coupling method according to manufacturer’s recommendation (Biacore, GE Healthcare). Briefly the CM5 surface was activated with the mixture of EDC/NHS. Recombinant proteins at dilution 1 µg/ml in a corresponding buffer i.e. Peroxiredoxin 2 and CCDC101 in sodium acetate buffer 100 mM (pH 4.9). The control channel was activated with EDC/NHS. […] KH176 andKH176m were solubilized in HBSS at stock solution 1 mM. […] The sensor chip surface was regenerated with 1 mM HCl. The specific binding profiles were obtained after subtracting the response signal from the control empty channel and from blank-buffer injection. The specific binding was calculated using Biaeval 3 software (Biacore, GE Healthcare) with the postulate of 1:1 ligand/analyte interaction.

Molecules are shown by their SMILES.

On to `Cc1c(C)c2c(c(C)c1O)CC[C@@](C)(C(=O)N[C@@H]1CCCNC1)O2.Cl` [KH176, (S)-6-hydroxy-2,5,7,8-tetramethyl-N-((R)-piperidin-3-yl)chroman-2-carboxamide hydrochloride], for which the EC50 in series [1] lay within 0.035 to 0.27 µM. The “Safety in Phase 1” value in series [2] (healthy adult male volunteers, NCT02544217) is “acceptable safety”. Further, in series [2] (human, in vivo), the “Pharmacokinetic properties in Phase 1” value is “good pharmacokinetic properties”.

As for `CC1=C(C)C(=O)C(CC[C@](C)(O)C(=O)N[C@@H]2CCCNC2)=C(C)C1=O` [KH176m], the “Effect on NADPH consumption” value on TrxR1, Trx1 and Prdx2 is listed as “significantly accelerate the consumption of NADPH”. Moreover, the “Ratio KH176m/KH176 in cells” value in series [3] is recorded as 0.48. Further, the “Binding to CCDC101” value on CCDC101 is recorded as “no binding”.

For orientation: EC50 means the concentration needed to bring the measured effect to its halfway point.
